We go through ten compounds from US20260176289A1, “SMALL MOLECULE INHIBITORS OF KRAS PROTEINS” (Merck Sharp & Dohme LLC, priority 2022, published 2026).

The target of experiment [1] is KRAS-G12D (Homo sapiens, UniProt P01116, G12D). Nature of the experiment: SOS-catalyzed nucleotide exchange assay (Procedure A, TR-FRET), KRAS-G12D. To be noted: nucleotide exchange, read-out: KRAS G12D GNE IC50. The experiment is classed as biochemical. The method, boiled down:
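Signal ratio (520/495 nm, excitation 340 nm) reports Bodipy-GDP retention on biotinylated RAS after SOS-catalyzed exchange with 3 mM GTP. SOS was 40 nM, except 160 nM for G12V. Room-temperature exchange lasted 60 min (90 min for G12V), following a 60 min compound preincubation.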
Background: Time-resolved FRET reads energy transfer from a long-lived donor to a nearby acceptor.

Experiment [2] has as its target KRAS-WT (Homo sapiens, UniProt P01116). In words: SOS-catalyzed nucleotide exchange assay (Procedure A, TR-FRET), KRAS-WT. The format is biochemical. The note with it: nucleotide exchange, read-out: KRAS WT GNE IC50. In a few lines: (§1)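 Compounds (10-point, 3-fold) were preincubated 60 min at room temperature with a biotinylated RAS/Bodipy-GDP/Tb-streptavidin TR-FRET complex. Exchange was started with human SOS plus 3 mM GTP. RAS/SOS: G12C 3/40 nM, WT 1/40 nM, NRAS 1.25/40 nM (60 min); G12V 1.25/160 nM (90 min). The 520/495 ratio was fit four-parameter.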

Experiment [3] relates to MKN-1 cells. In words: Cellular phospho-ERK assay, MKN-1 cells (amplified wild-type KRAS). The format is cell-based. To be noted: read-out: MKN1 pERK IC50. The method, boiled down:
(§2)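 10k–15k cells/well, o/n attach; cpd 2 h, 37 °C, 10-pt 1:3 from 30 μM final; lyse with protease/phosphatase inhibitors 30 min RT; multiplex SureFire p-ERK + total ERK; IC50 via 4PL on ratio.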

In experiment [4] the target is KRAS-G12C (C51S/C80L/C118S) (Homo sapiens, UniProt P01116, C118S/C51S/C80L/G12C). In words: SOS-catalyzed nucleotide exchange assay (Procedure A, TR-FRET), KRAS-G12C. The experiment is classed as biochemical. To be noted: nucleotide exchange, Procedure A; read-out: KRAS G12C GNE IC50. The method, boiled down:
as §1

Experiment [5] concerns AsPC-1 cells. In words: Cellular phospho-ERK assay, AsPC-1 cells (homozygous KRAS-G12D). The experiment is classed as cell-based. To be noted: read-out: AsPC1 pERK IC50. The method, boiled down:
as §2

Experiment [6] concerns SW620 cells. Nature of the experiment: Cellular phospho-ERK assay, SW620 cells (homozygous KRAS-G12V). The format is cell-based. The note with it: read-out: SW620 pERK IC50. In a few lines: as §2
Experiment [7] addresses KRAS-G13D (Homo sapiens, UniProt P01116, G13D). In words: SOS-catalyzed nucleotide exchange assay (Procedure A, TR-FRET), KRAS-G13D. To be noted: nucleotide exchange, Procedure A; read-out: KRAS G13D GNE IC50. The experiment is classed as biochemical.
Experiment [8] has as its target KRAS-G12V (Homo sapiens, UniProt P01116, G12V). Nature of the experiment: SOS-catalyzed nucleotide exchange assay (Procedure A, TR-FRET), KRAS-G12V. To be noted: nucleotide exchange, read-out: KRAS G12V GNE IC50. The experiment is classed as biochemical. In a few lines:
as §1

[9] abbreviates: Homo sapiens, amplified wild-type KRAS, 2 hours.
The mark [10] stands for this setting: Homo sapiens, ASPC1, 2 h, KRAS-G12D, 2 hours.
Setting [11] is: Homo sapiens, SW-620, KRAS-G12V, 2 hours.
Where [12] appears, read: Homo sapiens, 2 hours compound incubation.
[13] abbreviates: Homo sapiens, ASPC1, 2 h, 2 hours compound incubation.
Where [14] appears, read: Homo sapiens, SW-620, 2 hours compound incubation.

Where two headings read alike, the source gives them in different places.

In the case of `Cc1cc2[nH]ncc2c(-c2nccc3c2sc2nc(OC[C@@]45CCCN4C[C@H](F)C5)nc(N4CCOC[C@@](C)(O)C4)c23)c1C12CC(C1)C2` [Ex-43, (6S)-4-(8-(5-(bicyclo[1.1.1]pentan-1 yl)-6-methy1-1H-indazol-4-yl)-2-(((2R,7aS)-2-fluorotetrahydro-1H-pyrrolizin-7a(5H)-yl)methoxy)pyrido[4′,3′:4,5]thi-eno[2,3-d]pyrimidin-4-yl)-6-methyl-1,4-oxazepan-6-ol], the IC50 was determined as 13.9 nM in experiment [1]; 44.4 nM in experiment [2]; 145 nM in experiment [3] (setting [9]); 24.3 nM in experiment [4]; 130 nM in experiment [5] (setting [10]); 62 nM in experiment [6] (setting [11]). Also, the IC50 was 17.5 nM in experiment [7] and 26.8 nM in experiment [8].

For the compound `C[C@@]1(O)COCCN(c2nc(OC[C@@]34CCCN3C[C@H](F)C4)nc3sc4c(-c5c(C6(F)CC6)c(Cl)cc6[nH]ncc56)nccc4c23)C1` [Ex-52, (6S)-4-(8-(6-chloro-5-(1-fluorocyclopropyl)-1H-indazol-4-yl)-2-(((2R,7aS)-2-fluorotetrahydro-1H-pyrrolizin-7a(5H)-yl)methoxy)pyrido[4′,3′-4,5]thi-eno[2,3-d]pyrimidin-4-yl)-6-methyl-1,4-oxazepan-6-ol], the IC50 in experiment [1] is 4.05 nM; in experiment [2], 11.9 nM; in experiment [3] (setting [9]) it was 48.6 nM; in experiment [4] it was 30.1 nM; in experiment [5] (setting [10]) it was 68.7 nM; in experiment [6] (setting [11]), 37.3 nM. Also, the IC50 came to 9.02 nM in experiment [7] and 12.9 nM in experiment [8].

Take `C=C(C)c1c(C)cc2[nH]ncc2c1-c1nncc2c1sc1nc(OC[C@@]34CCCN3C[C@H](F)C4)nc(N3CCOC[C@@](C)(O)C3)c12` [Ex-278]: the IC50 in experiment [1] worked out at 14.6 nM; in experiment [2], 46 nM; in experiment [3] (setting [9]), 98.2 nM; in experiment [4], 74.9 nM; in experiment [5] (setting [10]), 364 nM; in experiment [6] (setting [11]), 103 nM. Also, the results for the IC50 in experiment [7] and in experiment [8] were 20.3 nM and 30.4 nM, respectively.

Regarding `[2H]C1([2H])CC[C@]2(COc3nc(N4CCOC[C@@](C)(O)C4)c4c(n3)sc3c(-c5c(C6CC6)c(Cl)cc6[nH]ncc56)nccc34)N1C[C@H](F)C2([2H])[2H]` [Ex-210, (6S)-4-(8-(6-chloro-5-cyclopropyl-1H-indazol-4-yl)-2-(((2R,7aS)-2-fluoro-tetrahydro-1H-pyrrolizin-7a(5H)-yl-1,1,5,5-d4)meth-oxy)pyrido[4′,3′: 4,5]thieno[2,3-d]pyrimidin-4-yl)-6-methyl-1,4-oxaze-pan-6-ol], the half-inhibitory concentration (IC50) is 4.71 nM in experiment [1]; 12.2 nM in experiment [2]; 20.1 nM in experiment [3] (setting [12]); 13.4 nM in experiment [4]; 35 nM in experiment [5] (setting [13]); 12.3 nM in experiment [6] (setting [14]). Also, the IC50 was found to be 12.7 nM in experiment [7] and 14.1 nM in experiment [8].

Turning to `CN1CCC[C@H]1COc1nc(N2CCOC[C@@](C)(O)C2)c2c(n1)sc1c(-c3c(C4CC4)c(C(F)(F)F)cc4[nH]ncc34)nccc12` [Ex-79, (6S)-4-(8-(5-cyclopropyl-6-(trifluoromethyl)-1H-indazol-4-yl)-2-(((S)-1-methylpyrrolidin-2-yl)methoxy)pyrido[4′,3′:4.5]thi-eno[2,3-d]pyrimidin-4-yl)-6-methyl-1,4-oxazepan-6-ol], the IC50 stood at 5.84 nM in experiment [1]; 8.2 nM in experiment [2]; 16.2 nM in experiment [3] (setting [9]); 57.9 nM in experiment [4]; 23.2 nM in experiment [5] (setting [10]); 8.94 nM in experiment [6] (setting [11]). Further, the values for the IC50 in experiment [7] and in experiment [8] were 27.9 nM and 10.8 nM, respectively.

Consider “(6S)-4-(8-(6-chloro- 5-cyclopropyl-1H- indazol-4-yl)-2- (((6'R,7a′R)-6′- fluorodihydro- 1′H,3′H-spiro[cyclo- propane-1,2′-pyr- rolizin]-7a′(5′H)- yl)methoxy)pyrido [4′,3′:4,5]thieno[2,3- d]pyrimidin-4-yl)-6- methyl-1,4-oxaze- pan-6-ol [Ex-218]”, for which the IC50 in experiment [1] was determined as 3.42 nM; in experiment [2], 6.76 nM; in experiment [3] (2 hours compound incubation) it was 37.4 nM; in experiment [4] it was 77.4 nM; in experiment [5] (2 hours compound incubation), 31.9 nM; in experiment [6] (2 hours compound incubation) it was 20.2 nM. Besides, the IC50 in experiment [7] worked out at 7.46 nM; in experiment [8], 8.69 nM.

Take `C=C(F)c1c(C(F)(F)F)cc2[nH]ncc2c1-c1nccc2c1sc1nc(OC[C@@]34CCCN3C[C@H](F)C4)nc(N3CCOC[C@@](C)(O)C3)c12` [Ex-58, (6S)-4-(2-(((2R,7aS)-2-fluorotetrahydro-1H-pyrrolizin-7a(5H)-yl)methoxy)-8-(5-(1-fluorovinyl)-6-(trifluoromethyl)-1H-indazol-4-yl)pyrido[4′,3′:4,5]thieno [2,3-d]pyrimidin-4-yl)-6-methyl-1,4-oxazepan-6-ol]: the IC50 in experiment [1] worked out at 5.41 nM; in experiment [2], 17.6 nM; in experiment [3] (setting [9]), 35.5 nM; in experiment [4], 16.5 nM; in experiment [5] (setting [10]), 57.1 nM; in experiment [6] (setting [11]) it was 36.2 nM. In addition, the IC50 in experiment [7] turned out to be 10.4 nM; in experiment [8], 13.5 nM.

In the case of `Cc1cc2[nH]ncc2c(-c2nncc3c2sc2nc(OC[C@@]45CCCN4C[C@H](F)C5)nc(N4CCOC[C@@](C)(O)C4)c23)c1C1CC1` [Ex-279, (6S)-4-(8-(5-cyclopropyl-6-methyl-1H-indazol-4-yl)-2-(((2R,7aS)-2-fluorotetrahydro-1H-pyrrolizin-7a(5H)-yl)methoxy)pyrimi-do[5′,4′:4,5]thieno[2,3-d]pyridazin-4-yl)-6-methyl-1,4-oxazepan-6-ol], the IC50 came to 5.15 nM in experiment [1]; 13.6 nM in experiment [2]; 43 nM in experiment [3] (setting [9]); 97.6 nM in experiment [4]; 114 nM in experiment [5] (setting [10]); 99.8 nM in experiment [6] (setting [11]). In addition, the IC50 came to 7.59 nM in experiment [7] and 16 nM in experiment [8].

For `C[C@@]1(O)COCCN(c2nc(OC[C@@]34CCCN3C[C@@]3(CC3(F)F)C4)nc3sc4c(-c5c(C6CC6)c(Cl)cc6[nH]ncc56)nccc4c23)C1` [Ex-211, (6S)-4-(8-(6-chloro-5-cyclopropyl-1H-indazol-4-yl)-2-(((1S,7a′S)-2,2-difluorodihydro-1′H,3′H-spiro[cyclo-propane-1,2′-pyrrol-izin]-7a′(5′H)-yl)-methoxy)pyrido [4′,3′:4,5]thieno[2,3-d]pyrimidin-4-yl)-6-methyl-1,4-oxaze-pan-6-ol], the IC50 was 5.85 nM in experiment [1]; 16.5 nM in experiment [2]; 83 nM in experiment [3] (setting [12]); 45.4 nM in experiment [4]; 56.9 nM in experiment [5] (setting [13]); 49.4 nM in experiment [6] (setting [14]). Besides, the IC50 came out at 15 nM in experiment [7] and 12.1 nM in experiment [8].

For the compound `C=C1CN2C[C@H](F)C[C@@]2(COc2nc(N3CCOC[C@@](C)(O)C3)c3c(n2)sc2c(-c4c(C5CC5)c(Cl)cc5[nH]ncc45)nccc23)C1` [Ex-223, (6S)-4-(8-(6-chloro-5-cyclopropyl-1H-indazol-4-yl)-2-(((2R,7aR)-2-fluoro-6-methylenetetra-hydro-1H-pyrrol-izin-7a(5H)-yl)methoxy)pyrido [4′,3′:4,5]thieno[2,3-d]pyrimidin-4-yl)-6-methyl-1,4-oxaze-pan-6-ol], the IC50 in experiment [1] worked out at 9.27 nM; in experiment [2], 24.5 nM; in experiment [3] (setting [12]) it was 42.9 nM; in experiment [4] it was 111 nM; in experiment [5] (setting [13]), 63.8 nM; in experiment [6] (setting [14]), 23.6 nM. Moreover, the figures for the IC50 in experiment [7] and in experiment [8] were 37.6 nM and 34.1 nM, respectively.

Broadly, the IC50 is the concentration that inhibits the measured activity by half.
